Laboratory results taken from patent US20120065063A1, “3-Aryl-4-(2,6-dimethylbenzylidene)isoxazol-5(4H)-ones as Fungicides” (Bayer CropScience AG, priority 2010, published 2012).

Assay: log P by HPLC on reversed-phase columns (EEC directive 79/831 Annex V.A8)
Format: physicochemical
Settings: acidic range pH 2.7, 0.1% aqueous formic acid/acetonitrile
Protocol: The log P values were measured according to EEC directive 79/831 Annex V.A8 by HPLC (High Performance Liquid Chromatography) on reversed-phase columns (C 18), using the method below:
The determination was carried out in the acidic range at pH 2.7 using the mobile phases 0.1% aqueous formic acid and acetonitrile; linear gradient from 10% acetonitrile to 95% acetonitrile.

SMILES	log P
Cc1ccccc1C1=NOC(=O)C1=Cc1c(C)cccc1C [Compound I-9]	3.95
COc1cccc(C2=NOC(=O)C2=Cc2c(C)cccc2C)c1OC [Compound I-20]	3.73
COc1ccc(F)cc1C1=NOC(=O)C1=Cc1c(C)cccc1C [Compound I-21]	3.75
Cc1cc(C)c(C=C2C(=O)ON=C2c2ccccc2I)c(C)c1 [Compound I-22]	4.51
CCOc1ccccc1C1=NOC(=O)C1=Cc1c(C)cc(C)cc1C [Compound I-26]	4.42
CCOc1ccccc1C1=NOC(=O)C1=Cc1c(C)cccc1C [Compound I-27]	4.00
Cc1cc(C)c(C=C2C(=O)ON=C2c2ccccc2Cl)c(C)c1 [Compound I-28]	4.38
Cc1cccc(C)c1C=C1C(=O)ON=C1c1ccccc1Cl [Compound I-29]	3.97
Cc1cccc(C)c1C=C1C(=O)ON=C1c1ccccc1OCc1ccccc1 [Compound I-31]	4.51
Cc1cccc(C)c1C=C1C(=O)ON=C1c1cccc(Cl)c1Cl [Compound I-34]	4.31
Cc1cccc(C)c1C=C1C(=O)ON=C1c1cc(F)ccc1F [Compound I-37]	3.77

Continued, values first:

log P	SMILES
4.34	Cc1cc(C)c(C=C2C(=O)ON=C2c2ccccc2C(F)(F)F)c(C)c1 [Compound I-1]
4.59	Cc1cc(C)c(C=C2C(=O)ON=C2c2ccccc2OC(F)(F)F)c(C)c1 [Compound I-2]
3.76	Cc1cc(C)c(C=C2C(=O)ON=C2c2ccccc2[N+](=O)[O-])c(C)c1 [Compound I-3]
3.40	Cc1cccc(C)c1C=C1C(=O)ON=C1c1ccccc1[N+](=O)[O-] [Compound I-4]
4.68	Cc1cc(C)c(C=C2C(=O)ON=C2c2cccc(C)c2C)c(C)c1 [Compound I-8]
4.26	Cc1cccc(C2=NOC(=O)C2=Cc2c(C)cccc2C)c1C [Compound I-12]
4.01	Cc1cc(C)c(C=C2C(=O)ON=C2c2ccccc2)c(C)c1 [Compound I-13]
3.95	COc1cccc(OC)c1C1=NOC(=O)C1=Cc1c(C)cc(C)cc1C [Compound I-15]
4.08	COc1cccc(C2=NOC(=O)C2=Cc2c(C)cc(C)cc2C)c1OC [Compound I-16]
4.12	COc1ccc(F)cc1C1=NOC(=O)C1=Cc1c(C)cc(C)cc1C [Compound I-17]
4.07	Cc1cc(C)c(C=C2C(=O)ON=C2c2ccccc2F)c(C)c1 [Compound I-23]
4.86	Cc1cc(C)c(C=C2C(=O)ON=C2c2ccccc2OCc2ccccc2)c(C)c1 [Compound I-30]
4.27	Cc1cc(C)c(C=C2C(=O)ON=C2c2ccccc2SC(F)F)c(C)c1 [Compound I-32]
4.80	Cc1cc(C)c(C=C2C(=O)ON=C2c2cccc(Cl)c2Cl)c(C)c1 [Compound I-33]
4.94	Cc1cc(C)c(C=C2C(=O)ON=C2c2ccc(Cl)cc2Cl)c(C)c1 [Compound I-35]
4.12	Cc1cc(C)c(C=C2C(=O)ON=C2c2cc(F)ccc2F)c(C)c1 [Compound I-36]
4.42	Cc1cc(C)c(C=C2C(=O)ON=C2c2cc(F)ccc2Cl)c(C)c1 [Compound I-38]

Same assay, conditions: reversed-phase HPLC column (C18), preparation examples, acidic range pH 2.7, formic acid, read-out: log P (HCOOH)

chromatographic logP	SMILES
1.67	COc1ccccc1C1=NOC(=O)C1 [3-(2-methoxyphenyl)isoxazol-5(4H)-one]
2.4	O=C1CC(c2cccc(C(F)(F)F)c2)=NO1 [3-(3-trifluoromethylphenyl)isoxazol-5(4H)-one]
1.74	O=C1CC(c2ccc(F)cc2)=NO1 [3-(4-fluorophenyl)isoxazol-5(4H)-one]
4.62	Cc1cc(C)c(/C=C2\C(=O)ON=C2c2cccc(C(F)(F)F)c2)c(C)c1 [Compound 1-59, 4-(2,4,6-trimethylbenzylidene)-3-(3-trifluoromethylphenyl)-1,2-oxazol-5(4H)-one]
3.69	COc1ccccc1C1=NOC(=O)/C1=C\c1c(C)cccc1C [Compound I-18, 4-(2,6-dimethylbenzylidene)-3-(2-methoxyphenyl)-1,2-oxazol-5(4H)-one]
